Data on two compounds can be found in patent US8784373B2, “Drug delivery by carbon nanotube arrays” (California Institute of Technology, priority 2010, dated 2014).

Series [1] can be described thus: Diffusion of flutax-1 from anchored CNT array. Format: physicochemical.
Series [2] in a line: Rubbing experiment (mechanical drug removal) with glass slide. The following applies: for flutax-1 removed (washed-out) by rubbing: approx. 125 μg deposited, 1 μL DI water, 500 g weight, 60 seconds. It is filed as physicochemical. As for the experimental part: Another experiment was performed that targeted possible drug removal from CNT-fitted drug delivery platform by mechanical (e.g., rubbing) actions during its cardiovascular travel. Two types of specimens were used, a bare sheet of latex and a sheet of latex with CNTs anchored on one side. On each specimen, approximately 125 μg of flutax-1 was deposited by successively dropping small volumes of its ethanol solution and allowed to dry. Next, 1 μL of DI water followed by a microscopic 3×1×5/128-inch glass slide was put on each specimen. Finally, with a 500 g weight on top of it, the microscopic slide was moved back and forth a few millimeters at about 1 cm/sec for 60 seconds (FIG. 8). […] After the test, each of the two specimens was dropped in 2 mL of pure ethanol to see if they still had flutax-1 left on them.

The conditions of series [3]: paclitaxel-eluting composite fibers, most of it over 30 days; cited from earlier work.

Structures are written as SMILES. “Also recorded” adds a separate entry of the source.

Regarding `CC(=O)O[C@H]1C(=O)[C@@]2(C)C([C@H](OC(=O)c3ccccc3)[C@]3(O)C[C@H](OC(=O)[C@H](O)[C@@H](NC(=O)c4ccccc4)c4ccccc4)C(C)=C1C3(C)C)[C@]1(OC(C)=O)CO[C@@H]1C[C@@H]2OC(=O)[C@H](C)NC(=O)c1ccc(-c2c3ccc(=O)cc-3oc3cc(O)ccc23)c(C(=O)O)c1` (stereo partly shown) [flutax-1], in series [1] (in DI water), the “movement (diffusion) of flutax-1 molecules” value is reported as “did not move appreciably”. In addition, the “movement (diffusion) of flutax-1 molecules, time scale” value in series [1] (in agar) is “in a matter of minutes”. For the same compound, the “flutax-1 remaining after rubbing, recovered in 2 mL pure ethanol” value in series [2] (CNT-fitted latex sheet) is on record as “much flutax-1 still remains; also recorded: considerably more flutax-1 released”; in series [2] (bare latex sheet), “no more flutax-1 remains”. For the same compound, the “flutax-1 removed (washed-out) by rubbing” value in series [2] (CNT-fitted latex sheet) is listed as “almost no”; in series [2] (bare latex sheet), “significant amount; also recorded: considerably higher flutax-1 removal”.
Regarding `CC(=O)O[C@H]1C(=O)[C@@]2(C)[C@H]([C@H](OC(=O)c3ccccc3)[C@]3(O)C[C@H](OC(=O)[C@H](O)[C@@H](NC(=O)c4ccccc4)c4ccccc4)C(C)=C1C3(C)C)[C@]1(OC(C)=O)CO[C@@H]1C[C@@H]2O` [paclitaxel], the “drug delivered from stent” value in series [3] is recorded as “about 40%”.
